Reference: US20260158156A1, “SPECIFIC CONJUGATION OF AN ANTIBODY” (priority 2021, published 2026)

Tested on: 8226-2A1 cells
Assay: MTT in vitro cytotoxicity assay of BCMA antibody conjugates, 8226-2A1
Assay type: cell-based
Settings: 15000 cells, 96 h incubation
Procedure: The cell lines used in the cytotoxicity assays were (1). […] To run the assay, the cells (180 μl, 6000 cells) were added to each well in a 96-well plate and incubated for 24 hours at 37° C. with 5% CO2. Next, the cells were treated with test compounds (20 μl) at various concentrations in appropriate cell culture medium (total volume, 0.2 mL). The control wells contain cells and the medium but lack the test compounds. […] MTT (5 mg/mL) was then added to the wells (20 μl) and the plates were incubated for 1.5 hr at 37° C. The medium was carefully removed and DMSO (180 μl) was added afterward. After it was shaken for 15 min, the absorbance was measured at 490 nm and 570 nm with a reference filter of 620 nm. The inhibition % was calculated according to the following equation: inhibition %=[1−(assay-blank)/(control-blank)]×100.

Work on `CC(=O)O[C@H]1C(=O)[C@@]2(C)[C@H]([C@H](OC(=O)c3ccccc3)[C@]3(O)C[C@H](OC(=O)[C@H](O)[C@@H](NC(=O)c4ccccc4)c4ccccc4)C(C)=C1C3(C)C)[C@]1(OC(C)=O)CO[C@@H]1C[C@@H]2O` [Paclitaxel] yielded an IC50 of 3.71 nM.
